Results published in ChEMBL document CHEMBL5729397, “Targeted drug rescue with novel compositions, combinations, and methods thereof” (2022).

Molecular target: Cytochrome P450 2D6 (Homo sapiens, UniProt P10635)
Test: Inhibition of Dextromethorphan Metabolism: Dextromethorphan O-demethylase activity was determined in human liver microsomes. […] The incubation mixtures contained pooled human liver microsomes (final concentrations: 0.25 mg/ml), dextromethorphan, and a NADPH-generating system (1.3 mM NADP+, 3.3 mM glucose 6-phosphate, 3.3 mM MgCl2, and 0.4 U/ml glucose-6-phosphate dehydrogenase). […] All incubations were performed in triplicate, and mean values were used for analysis.

Cytochrome P450 2D6, sequence (P10635 whole entry): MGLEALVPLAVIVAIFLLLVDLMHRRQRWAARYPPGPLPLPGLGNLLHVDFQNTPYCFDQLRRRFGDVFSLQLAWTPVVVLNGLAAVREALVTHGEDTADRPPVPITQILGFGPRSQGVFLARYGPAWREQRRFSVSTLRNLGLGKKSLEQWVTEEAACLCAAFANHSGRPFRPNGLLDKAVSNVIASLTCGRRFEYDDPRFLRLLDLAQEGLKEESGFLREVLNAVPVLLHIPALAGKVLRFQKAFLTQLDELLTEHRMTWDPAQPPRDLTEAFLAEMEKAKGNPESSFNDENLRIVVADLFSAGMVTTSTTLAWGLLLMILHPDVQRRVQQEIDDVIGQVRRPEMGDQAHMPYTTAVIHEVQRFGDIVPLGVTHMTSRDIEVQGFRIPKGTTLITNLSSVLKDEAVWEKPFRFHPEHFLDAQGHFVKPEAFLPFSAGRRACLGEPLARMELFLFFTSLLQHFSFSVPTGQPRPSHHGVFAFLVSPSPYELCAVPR

IC50: 1200 nM
SMILES: COc1ccc(CCc2ccccc2OCC(CN(C)C)OC(=O)CCC(=O)O)cc1 (stereo unspecified)
